# Results reported in patent publication US20210113522A1, “COUMARIN DERIVATIVE AS ANTI-ASTHMATIC AGENT, PHARMACEUTICAL COMPOSITION THEREOF, ITS PREPARATION AND USE” (I-NOVA MEDICINSKA ISTRAZIVANJA D.O.O., priority 2017, published 2021).
# Tests used:
# [1] = system: OVA-induced airway inflammation; experiment: OVA model of lung eosinophilia: differential cell count of bronchoalveolar lavage (BAL) cells; type: in vivo, Balb/c mice; details: vs PBS-treated OVA mice; 1 2 mg/kg preventively or therapeutically, beclomethasone 1 mg/kg, via the airway
# Protocol: The study was performed on female 8-week old Balb/c mice. The animals were kept under specific-pathogen-free (SPF) conditions with temperature control and HEPA system for breeding of laboratory animals. Experiments were performed during the light phase of the cycle. 40 mice (n=10/group) were separated into 4 groups:
# Group 1: OVA only Group 2: OVA+BECLOMETHASONE (1 mg/kg) Group 3: OVA+Compound 1 (preventively; 2 mg/kg) Group 4: OVA+Compound 1 (therapeutically; 2 mg/kg)
# Each group of mice was sensitized on days 0 and 14 with 20 μg/mouse of OVA adsorbed on 2 mg alum. On days 20, 21 and 22 the animals were stimulated with 100 μg/mouse OVA intranasally in a final volume of 50 μL/mouse.
# The first group (the positive control) was injected with 0.1 M phosphate-buffered saline (PBS) only.
# The second and third groups were treated preventively with compound 1 (2 mg/kg) or beclomethasone (1 mg/kg) on days 18-22 via the airway.
# The fourth group was treated therapeutically with compound 1 (2 mg/kg) on days 23-25 via the airway.
# We examined the effect of compound 1 treatment in the cell response on OVA-induced airway inflammation. OVA (100 μg/50 μL of PBS) was introduced intranasally (i.n.) 6 days after the second intraperitoneal (i.p.) sensitization with OVA. The treatment with compound 1 (preventively and therapeutically), beclomethasone or PBS only was performed according the treatment schedule; see FIG. 2.
# Two days after the last i.n. challenge, BAL cells were collected, and differential cell counts were performed to identify the number of various infiltrating inflammatory cells, see FIGS. 3A, 3B.
# Female 8-week old Balb/c mice were obtained from Harlan Farm (Blackthorn, UK). The animals were kept under specific-pathogen-free (SPF) conditions with temperature control and HEPA system for breeding of laboratory animals. The manipulations were approved by the Animal Care Commission at the Institute of Microbiology in accordance with the International regulations (EU Directive 2010/63/EU).
# Experiments were performed during the light phase of the cycle. The animals were allowed to adapt to the laboratory for at least 1 h before testing and were used only once. 40 mice (n=10/group) were separated into 4 groups:
# Group 1: OVA only Group 2: OVA+beclomethasone (1 mg/kg) Group 3: OVA+compound 1 (preventively; 2 mg/kg) Group 4: OVA+compound 1 (therapeutically; 2 mg/kg)
# The experimental procedure was carried out as described in literature reference 22. The procedure is as follows: • (1) using scissors, a small incision in the neck skin on the trachea was made and the skin upwards was opened to expose the salivary glands; the trachea was exposed; • (2) a small semi-excision of the trachea was made to allow a 21-G lavage tube to pass into the trachea; • (3) collection of the lavage fluid—0.5 mL of sterile PBS was injected into the lung. The saline from the first lavage was aspirate; the procedure was repeated 5 times; • (4) all lavages were pooled and were centrifuge for 5 min. at 300×g/4° C. to pellet the cells; the supernatant was discarded; • (5) the pellet was re-suspended in 1.5 mL ice cold PBS and centrifuge for 5 min. at 300×g/4° C.; the supernatant was discarded; • (6) the pellet was re-suspended in 1.0 mL ice cold PBS and the cells were counted; • (7) 50 000 cells were placed on the slide for cytospin; • (8) the cytrospin was performed for 10 min at 700 rpm; and • (9) the slides were air-dried and proceeded to cell staining.
# (§1) • (1) fix in Solution A (fixative); • (2) dip 5 times in Solution C (red); • (3) dip 5 times in Solution B (blue); • (4) rinse the slides in distilled water; • (5) air-drying of the slides; • (6) mounted the cover slides; and then • (7) 400 cells were counted under light microscopy. Histology Staining was then Performed as Follows: The lungs from all animals were fixed in 10% formalin (pH 7.4). […]
# [2] = system: OVA-induced airway inflammation; experiment: OVA model: lung histology (haematoxylin/eosin); type: in vivo, Balb/c mice; details: OVA-challenged mice; 1 2 mg/kg preventively or therapeutically, beclomethasone 1 mg/kg
# Protocol: Lungs from the Balb/c mice from the test-groups were isolated and fixed in 10% formalin with […] of the same solution introduced intratracheally prior the overnight fixation. Paraffin sections from the lungs were analyzed using a standard haematoxylin/eosin staining technique.
# as §1, with “7.4). Once fixed, tissue is processed as follows: • (1) 70% ethanol for 1 hour; • (2) 80% ethanol for 1 hour; • (3) 95% ethanol for 1 hour; • (4) first absolute ethanol for 1 hour; • (5) second absolute ethanol 1 hour; • (6) first clearing agent (xylene) for 1 hour; • (7) second clearing agent (xylene) for 1 hour; • (8) first wax at 58° C. for 1 hour; • (9) second wax at 58° C. for 1 hour; and • (10) embedding tissues in paraffin blocks. Tissues were sectioned using a microtome at 5 μm slices.” for “7.4).”
Structure (SMILES),Eosinophil infiltration into the lungs (BAL) [1],Lymphocyte infiltration (BAL) [1],Macrophages infiltration (BAL) [1],Neutrophil infiltration (BAL) [1],Eosinophil and other inflammatory cell infiltration in lung histology [2]
"O=c1oc2cc(O)cc(O)c2c(O)c1-c1coc2c1c(=O)oc1cc(O)cc(O)c12 [Compound 1, 7,9-dihydroxy-3-(4,5,7-trihydroxy-2-oxo-2H-chromene-3-yl)-4H-furo[3,2-c]chromen-4-one]",strongly suppressed,stimulate,stimulate,stimulate,not observed
"C[C@H]1C[C@H]2[C@@H]3CCC4=CC(=O)C=C[C@]4(C)[C@@]3(Cl)[C@@H](O)C[C@]2(C)[C@@]1(O)C(=O)CO [beclomethasone, reference compound]",suppressed,induced moderate,induced moderate,suppressed,not observed
